In patent US20250282895A1, “PHARMACEUTICAL COMPOSITIONS OF CHEMOTHERAPEUTIC AGENTS BASED ON BETA-S[…]-AMINO ACID DERIVATIVES” (priority 2021, published 2025):

Assays:
Assay type in all cases: physicochemical
[1] = Comparative stability, Formulation 4 (based on Treanda, mannitol); details: pH 4-5 (bendamustine), pH 4 (Compound (1c)•HCl)
Protocol: (§1) The stability of Compound (1c) either as the HCl salt or as the free base was compared to the stability of melphalan HCl and/or bendamustine HCl in various pharmaceutical formulations and at different concentrations and at temperatures of 0° C. or 25° C.
(§2) The stability of the compounds in the pharmaceutical formulations was determined at concentrations within the range from 0.4 mg/mL to 0.5 mg/mL, from 0.9 mg/mL to 1.1 mg/mL, and from 1.8 mg/mL to 2.1 mg/mL.
(§3) The amount of the active pharmaceutical ingredient (API) (Compound (1c), melphalan or bendamustine) in the pharmaceutical formulations at different times during storage was determined using HPLC/UV as described in detail for Example 4 and Example 5.
Treanda® is an injectable formulation of bendamustine hydrochloride, 1H-benzimidazole-2-butanoic acid, 5-[bis(2-chloroethyl)amino]-1-methyl-, 4-(5-(bis(2-chloroethyl)amino)-1-methyl-1H-benzo[d]imidazol-2-yl) butanoic acid monohydrochloride approved by the FDA. Treanda® for injection is provided in a vial containing either 25 or 100 mg of bendamustine HCl as a white to off-white lyophilized powder. Each vial contains either 25 mg or 100 mg of bendamustine hydrochloride and 42.5 mg or 170 mg of mannitol, USP, which is reconstituted in either 0.9% sodium chloride injection, USP, or 2.5% dextrose/0.45% sodium chloride solution injection, USP to a final concentration of 0.2 mg/mL-0.6 mg/mL and adjusted to a pH from 2.5 to 3.5.
A series of 12 mL glass vials each containing 12.5 mg (0.0317 mmol) of bendamustine mono-hydrochloride salt (C16H21C12N3O2·HCl, 394.72 g/mol; MedKoo, 200470) (corresponding to 11.3 mg of bendamustine as the free base) were prepared through weighing out the commercial compound into the vials. To each of the vials either containing bendamustine mono-hydrochloride salt was added 21.3 mg (0.117 mmol) of D-mannitol (C6H14O6, MW 182.17 g/mol; SigmaAldrich, M1902). The mixtures were dissolved in 2.0 mL of double distilled water (dd-H2O) (Arrowhead), the clear colorless solutions were frozen at −78° C. (dry ice/acetone bath), and the solvents were lyophilized off at about 100 mTorr within about 16 h to afford colorless solids.
A stock solution was prepared by dissolving 85.0 mg (0.255 mmol) of Compound (1c) (free base) and 170.4 mg of D-mannitol (0.935 mmol) (C6H14O6, MW 182.17 g/mol; SigmaAldrich, M1902), and 0.503 mL of 0.5072 M aq. HCl (0.255 mmol, 1.0 eq.) (Fluka, 318957) in about 16.0 mL of a mixture of acetonitrile/water (1:1, v/v) with vortexing in clean graduated glass cylinder (25 mL) to afford a stock solution of Compound (1c) as a mono-HCl salt of a concentration of 5.313 mg/mL and a D-mannitol concentration of 10.65 mg/mL. This solution was filtered through a 0.22 μm PTFE syringe filter into a clean 25 mL Erlenmeyer flask. Aliquots of 2.0 mL (2× 1.0 mL; 2× 5.313 mg) of this stock solution were rapidly pipetted into clean 12 mL scintillation vials. The aliquots were frozen at −78° C. (dry ice/acetone bath) and lyophilized at about 100 mTorr for about 16 hours to provide test vials each containing 11.8 mg (0.0319 mmol) of Compound (1c) mono-hydrochloride salt (mono-HCl salt) (corresponding to 10.6 mg of Compound (1c) as a free base) and 21.3 mg (0.117 mmol) of D-mannitol as a colorless powdery solid.
The materials in the vials were dissolved 2.5 mL of double-distilled water (dd-H2O) (Arrowhead) to provide clear colorless, non-viscous stock solutions of a concentration of 4.24 mg/mL of Compound (1c) as the monohydrochloride salt or 4.54 mg/mL of bendamustine as the mono-hydrochloride salt, respectively.
1.0 mL of the stock solution containing 4.24 mg/mL of Compound (1c) as the monohydrochloride salt was diluted with 9.0 mL of 0.9% saline to afford 10.0 mL of a test solution of a concentration of 0.424 mg/mL of Compound (1c) as the monohydrochloride salt and with a pH of about 4. […]

[2] = Stability of Compound (1c) free base in PBS buffer (LC/MS/MS); details: PBS buffer pH 7.4, 37° C., 1 μM
Protocol: A stability assay was carried out in 96-well microtiter plates. (S)-3-Amino-4-(5-(bis(2-chloroethyl)amino)-2-methylphenyl) butanoic acid (Compound (1c) free base) was incubated at 37° C. in phosphate buffered saline (PBS buffer), pH 7.4. The reaction mixtures (30 μL) contained a final concentration of 1 μM of Compound (1c). The percent Compound (1c) remaining in the mixture was determined using LC/MS/MS.
At each of the sampling time points, 300 μL of quench solution (50 vol-% acetonitrile, 50 vol-% methanol containing 1.3% (v/v) of 6N HCl) with internal standards (bucetin for positive ESI mode; warfarin for negative ESI mode) was transferred to each well. Plates were sealed and centrifuged at 4° C. for 15 min at 4,000 rpm. The supernatant was transferred to new plates for LC/MS/MS analysis.
All samples were analyzed on LC/MS/MS using an AB Sciex API 4000® instrument, coupled to a Shimadzu LC-20AD LC Pump system. Analytical samples were separated using a Waters Atlantis T3 dC18 reverse phase HPLC column (20 mm×2.1 mm) at a flow rate of 0.4 mL/min. The mobile phases consisted of 0.1% formic acid in water (solvent A) and 0.1% formic acid in 100% acetonitrile (solvent B).

[3] = Comparative stability, Formulation 3 (based on Evomela, SBE6.5-β-CD); details: Formulation 3, 25° C., 0.4-0.5 mg/mL, pH 5.8-6.1 (melphalan), pH 5-6 (Compound (1c)•HCl)
Protocol: as §1, §2, §3
Evomela® is an injectable formulation of melphalan hydrochloride, 4-[bis(2-chloroethyl)amino]-L-phenylalanine hydrochloride, approved by the FDA. Evomela® is supplied as a sterile white to off-white lyophilized powder in a single-dose vial for intravenous use. Each vial containing 50 mg melphalan free base equivalent to 56 mg melphalan hydrochloride and 2,700 mg betadex sulfobutyl ether (SBE6.5-β-CD; sulfobutyl ether β-cyclodextrin sodium) sodium, NF. Normal saline solution (0.9% Sodium Chloride Injection, USP) (8.6 mL as directed) is used to reconstitute Evomela® to a total of 10 mL having a 5 mg/mL nominal concentration of melphalan. The required volume of Evomela® needed for a patient dose is withdrawn from the vial(s) and added to the appropriate volume of 0.9% Sodium Chloride Injection, USP, to a final nominal concentration of 0.45 mg/mL of melphalan. This solution is then infused via an injection port or central venous catheter.
A series of 12 mL glass vials each containing 5.5 mg (0.0165 mmol of Compound (1c) free base and 270 mg of SBE6.5-β-CD, Captisol®) were prepared as described in Example 4.
The cyclodextrin derivative/Compound (1c) free base guest-host inclusion complex was reconstituted by dissolving the guest-host inclusion complex in 0.86 mL of 0.9% saline to provide 1.0 mL of a solution having a nominal concentration of 5.5 mg/mL of Compound (1c) free base.
(§4) A 1.0 mL aliquot of this solution was diluted with 10.0 mL of 0.9% saline, and the pH adjusted with 5 μL of a saturated aqueous NaHCO3 solution to provide 11.0 mL of a clear, colorless solution having a nominal concentration of 0.50 mg/mL of Compound (1c) from Compound (1c) free base and a pH from 5.8 to 6.1.
as §4, with “4.5” for “10.0”, “5.5” for “11.0”, “1.0” for “0.50”, “of about” for “from 5.8 to”
as §4, with “1.75” for “10.0”, “2.75” for “11.0”, “2.0” for “0.50”, “of about” for “from 5.8 to”
A series of 12 mL glass vials each containing 6.1 mg (0.0165 mmol of Compound (1c) mono-hydrochloride salt (corresponding to 5.5 mg of Compound (1c) free base) and 270 mg of SBE6.5-β-CD, Captisol®) were prepared as described in Example 5.
The cyclodextrin derivative/Compound (1c) mono-HCl salt guest-host inclusion complex was reconstituted by dissolving the guest-host inclusion complex in 0.86 mL of 0.9% saline to provide 1.0 mL of a solution having a nominal concentration of 6.1 mg/mL of Compound (1c) mono-HCl salt (corresponding to a nominal concentration of 5.5 mg/mL of the Compound (1c) free base).
as §4, with “0.5” for “1.0”, “5.0” for “10.0”, “5.5” for “11.0”, “mono-hydrochloride” for “free base”, “5.3” for “5.8”, “5.5. […]” for “6.1.”

Cl.Cn1c(CCCC(=O)O)nc2cc(N(CCCl)CCCl)ccc21 [Bendamustine•HCl, 4-(5-(bis(2-chloroethyl)amino)-1-methyl-1H-benzo[d]imidazol-2-yl) butanoic acid monohydrochloride, reference compound]
% API ([1]; Formulation 4, 0° C., 0.5 hours, 0.4-0.5 mg/mL): 98% | % API ([1]; Formulation 4, 0° C., 2.0 hours, 0.4-0.5 mg/mL): 95% | % API ([1]; Formulation 4, 25° C., 0.5 hours, 0.4-0.5 mg/mL): 98% | % API ([1]; Formulation 4, 25° C., 0.5 hours, 0.9-1.1 mg/mL): 97% | % API ([1]; Formulation 4, 25° C., 0.5 hours, 1.8-2.1 mg/mL): 95% | % API ([1]; Formulation 4, 25° C., 2.0 hours, 0.4-0.5 mg/mL): 91% | % API ([1]; Formulation 4, 25° C., 2.0 hours, 0.9-1.1 mg/mL): 95% | % API ([1]; Formulation 4, 25° C., 2.0 hours, 1.8-2.1 mg/mL): 89%

Cc1ccc(N(CCCl)CCCl)cc1C[C@H](N)CC(=O)O [Compound (1c), (S)-3-amino-4-(5-(bis(2-chloroethyl)amino)-2-methylphenyl) butanoic acid]
Compound (1c) Remaining (%) ([2]; 0 min): 100% | Compound (1c) Remaining (%) ([2]; 15 min): 78% | Compound (1c) Remaining (%) ([2]; 30 min): 68% | Compound (1c) Remaining (%) ([2]; 60 min): 56% | Compound (1c) Remaining (%) ([2]; 120 min): 30% | Compound (1c) Remaining (%) ([2]; 240 min): 10%

N[C@@H](Cc1ccc(N(CCCl)CCCl)cc1)C(=O)O [Melphalan free base, melphalan, reference compound]
% API ([3]; 0.5 hours): 97% | % API ([3]; 2.0 hours): 84%
